Usually ED50 stands for the dose that gives a 50% effect, or the effect in half of the subjects. A word on the LD50: it is the dose expected to kill half of the subjects tested. Lower therefore signals a more toxic substance.

We go through eleven molecules from patent publication US4647563A, “Heterocyclic compounds” (Boehringer Ingelheim KG, priority 1978, dated 1987).

Where two headings read alike, the source gives them in different places.

Data set [1] relates to acetylcholine bronchospasm. As to the kind of experiment: Bronchospasmolysis: influence on acetylcholine bronchospasm in guinea pigs under urethane anaesthesia, body plethysmography. The class given is in vivo. The following applies: Cavia porcellus. Here is the method: 1. Bronchospasmolysis The activity was tested on guinea pigs under urethane anaesthesia. Body plethysmography was used to determine the influence on acetylcholine bronchospasm after intravenous and oral application.

Data set [2] is described as follows: Acute toxicity, LD50 in mice. The following applies: mouse, in vivo.
Data set [3] has as its system Uterine relaxation. Kind of data set: Uterine relaxation on anesthetized rats. The class given is in vivo. The following applies: Rattus norvegicus, iv, read-out: Uterine relaxation ED50 i.v. As for the experimental part: (§1) Uterine relaxation was investigated on anesthetized rats. The intravenous ED50 of uterine relaxation was determined in ug/kg (50% of the tested animals react) and the (undesirable) increase in heart rate at the ED50 value was also determined. The comparison compound was fenoterol.

In data set [4] the test system is heart rate. As to the kind of experiment: Increase in heart rate at the ED50 of uterine relaxation on anesthetized rats. The class given is in vivo. Here is the method: as §1
The mark [5] stands for this setting: intravenous, read-out: Broncholysis ED50 intravenous.
The mark [6] stands for this setting: oral, read-out: Broncholysis ED50 oral.
[7] abbreviates: anesthetized rats, 50% of the tested animals react.

On to `CC(C)(CCn1cnc2ccccc21)NCC(O)c1ccc(O)cc1F` (stereo not drawn) [Example 6, 1-(2-Fluoro-4-hydroxy-phenyl)-2-[4-(1-benzimidazolyl)-2-methyl-2-butylamino]-ethanol], for which the 50% effective dose (ED50) in data set [1] (setting [5]) came out at 3.6 µg/kg; in data set [1] (setting [6]), 7 µg/kg. Moreover, the figures for the 50% lethal dose (LD50) in data set [2] (iv) and in data set [2] (po) were 29000 µg/kg and 300000 µg/kg, respectively.
Turning to `CC(Cc1ccc(O)cc1)NCC(O)c1cc(O)cc(O)c1` (stereo not drawn) [Fenoterol, reference compound], the ED50 in data set [3] was 0.45 µg/kg. In addition, in data set [4] (at the ED50 of uterine relaxation, fenoterol = 1, rats), the “Increase in heart rate in comparison with fenoterol” value (“Increase … with fenoterol” below) is on record as 1. Further, the “Increase in heart rate (beats per min.)” value in data set [4] (at the ED50 of uterine relaxation, i.v., anesthetized rats) turned out to be 36 beats per min.
Turning to `CC(C)(C)NCC(O)c1ccc(O)c(CO)c1` (stereo not drawn) [Salbutamol, reference compound], the ED50 is 9.2 µg/kg in data set [1] (setting [5]) and 1000 µg/kg in data set [1] (setting [6]).
For the molecule `Cc1c(C(O)CNC(C)(C)CCn2nnc3ccccc32)ccc(O)c1O` (stereo not drawn) [Table II, 15th compound], the ED50 in data set [3] (setting [7]) is 0.44 µg/kg. Moreover, in data set [4] (rat, in vivo), the “Increase … with fenoterol” value is 2/3. For the same molecule, the “Increase in heart rate (beats per min.)” value in data set [4] (rat, in vivo, iv) is reported as 23 beats per min.
As for `CC(=O)Nc1cc(C(O)CNC(C)(C)CCn2cnc3ccccc32)ccc1O` (stereo not drawn) [Table II, 16th compound], the ED50 came out at 1.8 µg/kg in data set [1] (setting [5]) and 66 µg/kg in data set [1] (setting [6]).
Turning to `CC(C)(CCn1cnc2ccccc21)NCC(O)c1ccc(O)cc1Cl` (stereo not drawn) [Table II, 21st compound], the figures for the ED50 in data set [1] (setting [5]) and in data set [1] (setting [6]) were 7.6 µg/kg and 190 µg/kg, respectively.
As to `CC(C)(CCCn1cnc2ccccc21)NCC(O)c1ccc(O)c(NS(C)(=O)=O)c1` (stereo not drawn) [Table II, 24th compound], in data set [3] (setting [7]), the ED50 turned out to be 0.5 µg/kg. The “Increase … with fenoterol” value in data set [4] (rat, in vivo) is 1/2. Besides, in data set [4] (rat, in vivo, iv), the “Increase in heart rate (beats per min.)” value is on record as 18 beats per min.
In the same order, the values of `CC(C)(CCn1cnc2ccccc21)NCC(O)c1ccc(O)cc1` (stereo not drawn) [Table III 10th compound] are 0.82 µg/kg, 1/2 and 19 beats per min.
For `CC(C)(CCn1cnc2ccccc21)NCC(O)c1ccc(O)c(NC(N)=O)c1` (stereo not drawn) [Table III, 15th compound], the ED50 came out at 0.9 µg/kg in data set [1] (setting [5]) and 14 µg/kg in data set [1] (setting [6]).
As to `CC(C)(CCn1cnc2ccccc21)NCC(O)c1ccc(O)c(CO)c1` (stereo not drawn) [Table III, 16th compound], the ED50 came to 1.2 µg/kg in data set [1] (setting [5]) and 7.6 µg/kg in data set [1] (setting [6]).
Consider `CC(C)(CCn1cnc2ccccc21)NCC(O)c1ccc(O)c2c1OCC(=O)N2` (stereo not drawn) [Table III, 24th compound], for which, in data set [1] (setting [6]), the ED50 is 5.4 µg/kg.
